What was measured:
[1] = tested on: PTPN1; details: read-out: IC50, PTPN1 inhibition (previous reports); cited from earlier work
[2] = tested on: PTPN2; details: read-out: KM for PTPN2; cited from earlier work
[3] = tested on: PTP activity in single A431 cells; assay: Single A431 cell PTP activity; assay type: cell-based, human; details: single A431 cells pretreated with 1 mM; Q1 = 36%, Q3 = 77%

## O=C1C=Cc2ccccc2C1=O [1,2-naphthoquinone]
[1]
  IC50: 1600 to 5000 nM

## N[C@@H](Cc1ccc(OP(=O)(O)O)cc1)C(=O)O [phosphotyrosine]
[2]
  Km: 300 µM

## sodium pervanadate
[3]
  median phosphorylation remaining in 60 s (inhibition of dephosphorylation): 53%
[1]
  IC50: 400 nM
